Data taken from PMC6934184, “Selective DNA-PKcs inhibition extends the therapeutic index of localized radiotherapy and chemotherapy” (The Journal of Clinical Investigation, 2019).

Molecular target: T1, PASK (Homo sapiens, UniProt Q96RG2)
T1 construct: purchased Thermo Fisher Scientific (Life Technologies) SelectScreen
Assay: SelectScreen Z'LYTE
Type: biochemical
Outline: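 NU5455 was profiled across the SelectScreen Broad panel of kinase activity and binding assays. Z'LYTE reactions such as CSF1R ran at apparent Km ATP, while the Adapta CAMK1 assay used ATP listed as 10. Values are given as percent.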

T1 sequence (Q96RG2 whole entry): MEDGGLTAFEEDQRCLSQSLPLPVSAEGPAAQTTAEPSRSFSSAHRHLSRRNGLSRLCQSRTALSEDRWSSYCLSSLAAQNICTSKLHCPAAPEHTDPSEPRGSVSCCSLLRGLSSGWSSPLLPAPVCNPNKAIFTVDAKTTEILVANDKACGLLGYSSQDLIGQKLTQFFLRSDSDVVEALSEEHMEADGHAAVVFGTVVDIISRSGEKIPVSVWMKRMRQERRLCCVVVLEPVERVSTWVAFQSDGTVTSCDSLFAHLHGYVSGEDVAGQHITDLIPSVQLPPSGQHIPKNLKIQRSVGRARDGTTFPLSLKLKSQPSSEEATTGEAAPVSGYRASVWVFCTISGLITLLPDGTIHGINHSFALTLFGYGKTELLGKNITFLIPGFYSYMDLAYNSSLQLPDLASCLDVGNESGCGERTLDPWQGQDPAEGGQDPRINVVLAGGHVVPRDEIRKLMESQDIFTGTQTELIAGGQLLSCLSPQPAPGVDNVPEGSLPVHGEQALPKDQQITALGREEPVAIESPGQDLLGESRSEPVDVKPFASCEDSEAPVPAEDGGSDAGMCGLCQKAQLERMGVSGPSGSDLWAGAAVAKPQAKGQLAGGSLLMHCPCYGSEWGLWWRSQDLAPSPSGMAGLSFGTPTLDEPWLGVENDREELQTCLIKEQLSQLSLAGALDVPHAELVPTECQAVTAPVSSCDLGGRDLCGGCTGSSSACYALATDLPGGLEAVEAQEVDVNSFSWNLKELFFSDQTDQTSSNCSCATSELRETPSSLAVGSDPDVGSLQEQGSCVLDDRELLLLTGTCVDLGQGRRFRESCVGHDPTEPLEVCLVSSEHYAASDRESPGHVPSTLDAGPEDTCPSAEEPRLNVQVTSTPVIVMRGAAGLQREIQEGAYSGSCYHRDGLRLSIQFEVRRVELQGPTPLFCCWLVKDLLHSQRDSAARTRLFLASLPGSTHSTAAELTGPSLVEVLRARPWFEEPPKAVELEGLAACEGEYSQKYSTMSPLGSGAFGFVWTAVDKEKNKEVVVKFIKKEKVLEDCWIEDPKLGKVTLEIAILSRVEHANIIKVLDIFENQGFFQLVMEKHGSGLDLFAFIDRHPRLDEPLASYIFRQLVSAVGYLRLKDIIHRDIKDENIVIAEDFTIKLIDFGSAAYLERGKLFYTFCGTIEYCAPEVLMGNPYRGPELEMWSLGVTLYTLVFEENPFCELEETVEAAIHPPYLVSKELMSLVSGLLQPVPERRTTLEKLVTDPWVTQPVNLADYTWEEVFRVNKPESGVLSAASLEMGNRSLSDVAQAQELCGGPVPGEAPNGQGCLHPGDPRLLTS

Q: `CN(C(=O)CN1CCOCC1)c1ccc2sc3c(-c4cccc5c(=O)cc(N6CC7CCC(C6)O7)oc45)cccc3c2c1` [NU5455] was tested. Which inhibition at 1 µM did it give?
A: Its inhibition at 1 µM is 2.3%.
